From patent US20240092773A1, “DIHYDRO-CYCLOPENTA-ISOQUINOLINE SULFONAMIDES DERIVATIVES” (UCB Biopharma SRL, priority 2019, published 2024)

Molecular target: IgE-Tb binding to soluble IgE receptor FcεR1α (Y131A mutation) (Homo sapiens, UniProt P01854, N146Q/N252Q)
Assay: In vitro FRET assay: inhibition of binding of IgE-Tb to receptor FcεR1α-Y131A-AF488
Conditions: read-out: FRET IC50 range

IgE-Tb binding to soluble IgE receptor FcεR1α (Y131A mutation), sequence (P01854 whole entry N146Q/N252Q, looked up): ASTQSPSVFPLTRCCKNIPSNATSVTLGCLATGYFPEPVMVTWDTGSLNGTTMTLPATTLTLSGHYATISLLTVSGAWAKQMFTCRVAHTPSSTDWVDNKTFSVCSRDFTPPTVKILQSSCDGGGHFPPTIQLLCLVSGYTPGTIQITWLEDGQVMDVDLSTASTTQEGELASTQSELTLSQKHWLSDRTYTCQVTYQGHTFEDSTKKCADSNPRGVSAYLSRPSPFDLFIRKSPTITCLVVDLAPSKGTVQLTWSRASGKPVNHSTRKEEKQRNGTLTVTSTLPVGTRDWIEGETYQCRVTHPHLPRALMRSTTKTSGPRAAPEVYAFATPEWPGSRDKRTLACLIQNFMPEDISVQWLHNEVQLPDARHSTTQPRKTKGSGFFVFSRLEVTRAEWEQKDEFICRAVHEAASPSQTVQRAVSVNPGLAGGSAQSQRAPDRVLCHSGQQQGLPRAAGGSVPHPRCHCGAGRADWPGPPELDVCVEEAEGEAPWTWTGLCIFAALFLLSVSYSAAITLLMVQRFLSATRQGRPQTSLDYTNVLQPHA

`CC(C)CNS(=O)(=O)c1cc2c(c3cnc(C4CC4)cc13)[C@@H](Nc1nc3ccccc3[nH]1)CC2` (single isomer, unassigned) [Example 80, (9R*)-9-(1H-benzimidazol-2-ylamino)-3-cyclopropyl-N-(2-methylpropyl)-8,9-dihydro-7H-cyclopenta[h]isoquinoline-5-sulfonamide] was tested, and the IC50 was 0.01 to 0.05 µM.

With `Cn1ncc2c(NC3CCc4c3cc(S(=O)(=O)NCC(C)(C)F)c3cc(C5CC5)ncc43)cncc21` (stereo not drawn) [Example 41, 3-cyclopropyl-N-(2-fluoro-2-methylpropyl)-7-[(1-methylpyrazolo[3,4-c]pyridin-4-yl)amino]-8,9-dihydro-7H-cyclopenta[h]isoquinoline-5-sulfonamide] the IC50 was 0.01 to 0.05 µM.

For `CC(C)(F)CNS(=O)(=O)c1cc2c(c3cnc(C4CC4)cc13)CCC2n1nccc1NC(=O)C1CC1` (stereo not drawn) [Example 38, N-[2-[3-cyclopropyl-5-[(2-fluoro-2-methylpropyl)sulfamoyl]-8,9-dihydro-7H-cyclopenta[h]isoquinolin-7-yl]pyrazol-3-yl]cyclopropanecarboxamide], the IC50 was 0.1 to 2 µM.

`Cc1cc(Nc2nncn2[C@H]2CCc3c2cc(S(=O)(=O)NCC(C)(C)F)c2cc(C4CC4)nnc32)n(C)n1` (single isomer, unassigned) [Example 25, (7R*)-3-cyclopropyl-7-[3-[(2,5-dimethylpyrazol-3-yl)amino]-1,2,4-triazol-4-yl]-N-(2-fluoro-2-methylpropyl)-8,9-dihydro-7H-cyclopenta[h]cinnoline-5-sulfonamide] showed an IC50 of 0.05 to 0.1 µM.

With `CCNc1c(NC2CCc3c2cc(S(=O)(=O)NCC(C)C)c2cc(C4CC4)ncc32)c(=O)c1=O` (single isomer, unassigned) [Example 53, (7R*)-3-cyclopropyl-7-[[2-(ethylamino)-3,4-dioxocyclobuten-1-yl]amino]-N-(2-methylpropyl)-8,9-dihydro-7H-cyclopenta[h]isoquinoline-5-sulfonamide] the IC50 was 0.01 to 0.05 µM.

Compound `CC(C)(F)CNS(=O)(=O)c1cc2c(c3cnc(C4CC4)cc13)C(Nc1cccnc1)CC2` (stereo not drawn) [Example 32, 3-cyclopropyl-N-(2-fluoro-2-methylpropyl)-9-(pyridin-3-ylamino)-8,9-dihydro-7H-cyclopenta[h]isoquinoline-5-sulfonamide] has an IC50 of 0.05 to 0.1 µM.

With `CC(C)CNS(=O)(=O)c1cc2c(c3cnc(C4CC4)cc13)C(NS(=O)(=O)c1cccnc1)CC2` (stereo not drawn) [Example 15, 3-cyclopropyl-N-(2-methylpropyl)-9-(pyridin-3-ylsulfonylamino)-8,9-dihydro-7H-cyclopenta[h]isoquinoline-5-sulfonamide] the IC50 was 0.1 to 2 µM.

In the case of `CCNc1nncn1C1CCc2cc(S(=O)(=O)NCC(C)C)c3cc(C4CC4)ncc3c21` (stereo not drawn) [Example 72, 3-cyclopropyl-9-[3-(ethylamino)-1,2,4-triazol-4-yl]-N-(2-methylpropyl)-8,9-dihydro-7H-cyclopenta[h]isoquinoline-5-sulfonamide], the IC50 is reported as 0.1 to 2 µM.

Compound `CC(C)CNS(=O)(=O)c1cc2c(c3cnc(C4CC4)c(F)c13)CCC2` [Example 27, 3-cyclopropyl-4-fluoro-N-(2-methylpropyl)-8,9-dihydro-7H-cyclopenta[h]isoquinoline-5-sulfonamide] has an IC50 of 0.1 to 2 µM.

Work on `CC(C)(F)CNS(=O)(=O)c1cc2c(c3cnc(C4CC4)cc13)CC[C@H]2n1ccnc1NCC1CC1` (single isomer, unassigned) [Example 12, (7R*)-3-cyclopropyl-7-[2-(cyclopropylmethylamino)imidazol-1-yl]-N-(2-fluoro-2-methylpropyl)-8,9-dihydro-7H-cyclopenta[h]isoquinoline-5-sulfonamide] yielded an IC50 of 0.1 to 2 µM.

Compound `CC(C)CNS(=O)(=O)c1cc2c(c3cnc(C4CC4)cc13)C(n1cnnc1Nc1ccnn1C)CC2` (stereo not drawn) [Example 4, 3-cyclopropyl-N-isobutyl-9-[3-[(2-methylpyrazol-3-yl)amino]-1,2,4-triazol-4-yl]-8,9-dihydro-7H-cyclopenta[h]isoquinoline-5-sulfonamide] has an IC50 of 0.1 to 2 µM.

For `CC(C)CNS(=O)(=O)c1cc2c(c3cnc(C4CC4)cc13)[C@H](NC(=O)c1cccnc1)CC2` (single isomer, unassigned) [Example 21, N-[(9R*)-3-cyclopropyl-5-(2-methylpropylsulfamoyl)-8,9-dihydro-7H-cyclopenta[h]isoquinolin-9-yl]pyridine-3-carboxamide], the IC50 was 0.01 to 0.05 µM.

Work on `CC(C)(F)CNS(=O)(=O)c1cc2c(c3cnc(C4CC4)cc13)C(Oc1cccnc1)CC2` (stereo not drawn) [Example 93, 3-cyclopropyl-N-(2-fluoro-2-methylpropyl)-9-pyridin-3-yloxy-8,9-dihydro-7H-cyclopenta[h]isoquinoline-5-sulfonamide] yielded an IC50 of 0.1 to 2 µM.

Work on `CC(C)(F)CNS(=O)(=O)c1cc2c(c3cnc(C4CC4)cc13)CC[C@@H]2NC(=O)C1CN(C(=O)OC(C)(C)C)C1` (single isomer, unassigned) [Example 56, tert-butyl 3-[[(7R*)-3-cyclopropyl-5-[(2-fluoro-2-methylpropyl)sulfamoyl]-8,9-dihydro-7H-cyclopenta[h]isoquinolin-7-yl]carbamoyl]azetidine-1-carboxylate] yielded an IC50 of 0.1 to 2 µM.

`Cn1cc(C#N)c(NC2CCc3cc(S(=O)(=O)NCC(C)(C)F)c4cc(C5CC5)ncc4c32)n1` (stereo not drawn) [Example 67, 9-[(4-cyano-1-methylpyrazol-3-yl)amino]-3-cyclopropyl-N-(2-fluoro-2-methylpropyl)-8,9-dihydro-7H-cyclopenta[h]isoquinoline-5-sulfonamide] showed an IC50 of 0.1 to 2 µM.

For `CC(C)(F)CNS(=O)(=O)c1cc2c(c3cnc(C4CC4)cc13)CCC2NC1=CC(=O)C1(C)C` (stereo not drawn) [Example 60, 3-cyclopropyl-7-[(4,4-dimethyl-3-oxocyclobuten-1-yl)amino]-N-(2-fluoro-2-methylpropyl)-8,9-dihydro-7H-cyclopenta[h]isoquinoline-5-sulfonamide], the IC50 was 0.1 to 2 µM.

`[2H]C([2H])(NS(=O)(=O)c1cc2c(c3cnc(C4CC4)cc13)CCC2n1cnnc1NCC1CC1)C(C)C` (stereo not drawn) [Example 35, 3-cyclopropyl-7-[3-(cyclopropylmethylamino)-1,2,4-triazol-4-yl]-N-(1,1-dideuterio-2-methylpropyl)-8,9-dihydro-7H-cyclopenta[h]isoquinoline-5-sulfonamide] gave an IC50 of 0.01 to 0.05 µM.

For `CC(C)CNS(=O)(=O)c1cc2c(c3cnc(C4CC4)cc13)CCC2(C)O` (stereo not drawn) [Example 49, 3-cyclopropyl-7-hydroxy-7-methyl-N-(2-methylpropyl)-8,9-dihydrocyclopenta[h]isoquinoline-5-sulfonamide], the IC50 was 0.1 to 2 µM.

In the case of `CC(C)(F)CNS(=O)(=O)c1cc2c(c3cnc(C4CC4)cc13)CCC2N1CCC[C@@H](N)C1` (stereo partly drawn) [Example 57, 7-[(3R)-3-aminopiperidin-1-yl]-3-cyclopropyl-N-(2-fluoro-2-methylpropyl)-8,9-dihydro-7H-cyclopenta[h]isoquinoline-5-sulfonamide], the IC50 is reported as 0.1 to 2 µM.

Compound `CC1CC1C(=O)NC1CCc2cc(S(=O)(=O)NCC(C)(C)F)c3cc(C4CC4)ncc3c21` (stereo not drawn) [Example 26, N-[3-cyclopropyl-5-[(2-fluoro-2-methylpropyl)sulfamoyl]-8,9-dihydro-7H-cyclopenta[h]isoquinolin-9-yl]-2-methylcyclopropane-1-carboxamide] has an IC50 of 0.1 to 2 µM.

Work on `Cc1cc(-n2cnnc2NC2CCc3c2cc(S(=O)(=O)NCC(C)C)c2cc(C4CC4)ncc32)n(C)n1` (stereo not drawn) [Example 88, 3-cyclopropyl-7-[[4-(2,5-dimethylpyrazol-3-yl)-1,2,4-triazol-3-yl]amino]-N-(2-methylpropyl)-8,9-dihydro-7H-cyclopenta[h]isoquinoline-5-sulfonamide] yielded an IC50 of 0.1 to 2 µM.
